# Measurements published in patent publication US20160324172A1, “Post-Harvest Coating for Fresh Produce” (Jones-Hamilton Co., priority 2015, published 2016).
# Assay: Solubility of emulsifier/stabilizer in the coating solution (visual evaluation)
# Format: physicochemical
# Procedure: For this experiment, coating solutions consisted of: 200 g tap water, 14 g SAS (7 w %), 30 g cornstarch (15 w %), and varying amounts of diverse emulsifiers/stabilizers.
# Treatment: For each emulsifying material, one grape tomato was soaked for 1 minute in respective coating solution, and allowed to dry on a cooling tray. If material generated a visually preferred coating, 8 more grape tomatoes were coated (ntotal=9) in the same solution to generate enough samples for a microbial test. […] A second grape tomato was soaked, and if the stickiness improved, the concentration of the emulsifying ingredient was further increased until preferred coating was achieved. 8 more tomatoes were coated at preferred concentration (ntotal=9) for microbial testing.
# Evaluation: Coatings were photographed and evaluated visually after the material dried. Microbial test of tomatoes with preferred coatings: Grape tomatoes were stored for 7 days at room temperature on cooling trays. Three tomatoes (triplicates) were swabbed with pre-wetted cotton swabs after: 24 hours, 3 days and 7 days. For dilution purpose, the swabs were transferred to Eppendorf tubes with 1 ml PBS. Three 1 ul loops (triplicates) were used to transfer three 1 ul samples per Eppendorf tube to nutrient agar plates. Per swab: 1 Eppendorf tubes and 3 nutrient agar plates. Per tomato: 3 Eppendorf tubes and 9 nutrient agar plates. Nutrient agar plates were incubated at room temperature for 7 days. Colony forming units were counted after: 24 hours, 3 days and 7 days.
smiles,measurement,setting,value
"OCC(O)CO [Vegetable glycerin, glycerin]",solubility in the water-based coating solution,,good solubility
same,Coating solution (Solubility of emulsifier/stabilizer),"200 g tap water, 14 g SAS, 30 g cornstarch plus emulsifier, visual evaluation",Good
same,Solubility,"overall assessment, solubility in coating solution",Good
